Tests used:
Format in all cases: in vivo
[1] = tested on: brachiaria platyphyla (BRAPL), digitaria sanguinalis (DIGSA), polygonum convolvulus (POLCO), amaranthus tuberculatus (AMATU); assay: Adjuvant with herbicide mesotrione, track sprayer, mean across four weed species
[2] = tested on: digitaria sanguinalis (DIGSA); assay: Adjuvant with herbicide mesotrione on DIGSA
[3] = tested on: brachiaria platyphyla (BRAPL); assay: Adjuvant with herbicide mesotrione on BRAPL
[4] = tested on: amaranthus tuberculatus (AMATU); assay: Adjuvant with herbicide mesotrione on AMATU
[5] = tested on: brachiaria platyphyla (BRAPL), digitaria sanguinalis (DIGSA), polygonum convolvulus (POLCO); assay: Adjuvant with herbicide mesotrione, mean across three weed species (Example 20); conditions: mesotrione 30, 60 or 90 g/ha; Sample 13 0.2%, Tween 20 0.5%; 14 and 21 days
Experimental: (§1) In this example Sample 13 from Table 1 was compared to the oil adjuvant blend Turbocharge™. The herbicide fomesafen was applied to the weed species xanthium strumarium (XANST), setaria viridis (SETVI), abutilon theophrasti (ABUTH), and chenopodium album (CHEAL) at rates of 60 or 120 grams per hectare, using a laboratory track sprayer. Each experiment was replicated four times and the percentage damage to the weeds was assessed visually at time periods of 7, 14 and 21 days after application. Each adjuvant was applied at a rate of 0.5% of the volume of the spray water. Four effects were evaluated: pesticide rate (2 levels), adjuvant type (two levels), weed species (four levels) and days after application (three levels). A standard simple linear model was constructed to judge the significance of these effects. […] The effect of each adjuvant was pulled out from the model and the least significant differences evaluated using a Student's t method. […]
In this example the rate response of the butylene oxide adjuvant 13 of Table 1 was measured to display the excellent performance of this adjuvant compared to the commercial adjuvant Tween™20, used at a rate of 0.5% by volume. […] In each case the experiments were replicated four times and the percentage damage to the weeds was assessed visually at time periods of 14 and 21 days after application.

[6] = tested on: polygonum convolvulus (POLCO); assay: Adjuvant with herbicide mesotrione on POLCO
[7] = tested on: brachiaria decumbens (BRADE), digitaria sanguinalis (DIGSA), polygonum convolvulus (POLCO), amaranthus retroflexus (AMARE); assay: Adjuvant with herbicide mesotrione, mean across four weed species (Example 28); conditions: mesotrione 45 or 90 g/ha; Sample 28 0.2%, Tween 20 0.5%; 7, 14 and 21 days
Experimental: as §1, with “levels).” for “levels). A standard simple linear model was constructed to judge the significance of these effects.”
In this example the rate response of a non-ethoxylated butylene oxide adjuvant was measured at an adjuvant rate of 0.2% by volume in order to display the excellent performance of this adjuvant compared to the commercial adjuvant' Tween 20, which was used at a rate of 0.5% by volume. […] In each case the experiments were replicated three times and the percentage damage to the weeds was assessed visually at time periods of 7, 14 and 21 days after application. […]

Chinese cabbage = assay: Phytotoxicity of adjuvant to Chinese cabbage; conditions: 7 days after spray application
Experimental: (§2) The plants were sprayed with water at a rate of approximately 500 litres per hectare, the water containing 0.1% v/v or 0.2% v/v adjuvant. The plants were assessed for phytotoxicity 7 days after spray application. Each experiment was replicated twice and the results averaged. In the control experiment the plants were sprayed with water and no phytotoxicity was observed.

soybean = assay: Phytotoxicity of adjuvant to soybean; conditions: 7 days after spray application
Experimental: as §2

French bean = assay: Phytotoxicity of adjuvant to French bean; conditions: 7 days after spray application
Experimental: as §2

[8] = mesotrione 45 and 90 g/ha, adjuvants 0.5% of spray water, 7, 14 and 21 days after application
[9] = mesotrione 45 or 90 g/ha, Sample 27 0.2%, Tween 20 0.5%, 7, 14 and 21 days
[10] = mesotrione 30, 60 or 90 g/ha, Sample 13 0.2%, Tween 20 0.5%, 14 and 21 days

Tween 20
mean efficacy (percentage damage to the weeds), All weeds [1, 8]: 63.861; B % | mean efficacy (percentage damage to the weeds), All weeds [1, 9]: 54.54; A % | mean efficacy (percentage damage to the weeds), DIGSA [2, 10]: 45.55; A % | mean efficacy (percentage damage to the weeds), DIGSA [2, 8]: 48.33; B % | mean efficacy (percentage damage to the weeds), DIGSA [2, 9]: 41.67; A % | mean efficacy (percentage damage to the weeds), BRAPL [3, 10]: 26.11; B % | mean efficacy (percentage damage to the weeds), BRAPL [3, 8]: 44.72; B % | mean efficacy (percentage damage to the weeds), BRAPL [3, 9]: 33.06; B % | mean efficacy (percentage damage to the weeds), AMATU [4, 8]: 66.94; AB % | mean efficacy (percentage damage to the weeds), AMATU [4, 9]: 69.86; A % | mean efficacy (percentage damage to the weeds), All weeds [5]: 26.11; B % | mean efficacy (percentage damage to the weeds), POLCO [6, 10]: 32.77; B % | mean efficacy (percentage damage to the weeds), POLCO [6, 8]: 95.44; A % | mean efficacy (percentage damage to the weeds), POLCO [6, 9]: 73.61; A % | Mean kill (%) [7]: 65.8%

CCCCCCCC/C=C\CCCCCCCCOCCOCCOCCOCCOCCOCCOCCOCCOCCOCCO [Genapol O100]
Chinese cabbage % phytotoxicity (Chinese cabbage; 0.1% v/v adjuvant in water): 2% | Chinese cabbage % phytotoxicity (Chinese cabbage; 0.2% v/v adjuvant in water): 10% | Soybean % phytotoxicity (soybean; 0.1% v/v adjuvant in water): 3.5% | Soybean % phytotoxicity (soybean; 0.2% v/v adjuvant in water): 15% | French bean % phytotoxicity (French bean; 0.1% v/v adjuvant in water): 5% | French bean % phytotoxicity (French bean; 0.2% v/v adjuvant in water): 10%
